In ChEMBL document CHEMBL2380233, “Addition of artificial salt bridge by Ile646Lys mutation in gp41 coiled-coil domain regulates 6-helical bundle formation” (Bioorg Med Chem Lett, 2013):

Key:
[1] = system: Human immunodeficiency virus 1; test: Antiviral activity against HIV1 SF162 infected in HEK293T cells by luciferase reporter gene assay; type: functional, cell-based; settings: Human immunodeficiency virus 1, SF162 ISOLATE, HEK-293T
[2] = system: Human immunodeficiency virus 1; test: Antiviral activity against HIV1 CNE3 infected in HEK293T cells by luciferase reporter gene assay; type: functional, organism-based; settings: Human immunodeficiency virus 1, CNE3, HEK-293T
[3] = system: Human immunodeficiency virus 1; test: Antiviral activity against HIV1 HXB2 infected in HEK293T cells by luciferase reporter gene assay; type: functional, organism-based; settings: Human immunodeficiency virus 1, HXB2, HEK-293T
[4] = system: Human immunodeficiency virus 1; test: Antiviral activity against HIV1 JRFL infected in HEK293T cells by luciferase reporter gene assay; type: functional, organism-based; settings: Human immunodeficiency virus 1, JRFL, HEK-293T

IC50 [1] | IC50 [2] | IC50 [3] | IC50 [4] | Structure (SMILES)
1430 nM | 470 nM | 1310 nM | 1190 nM | CC[C@H](C)[C@H](NC(=O)[C@H](CCC(=O)O)NC(=O)[C@H](CCCNC(=N)N)NC(=O)[C@H](CC(=O)O)NC(=O)[C@H](Cc1c[nH]c2ccccc12)NC(=O)[C@H](CCC(=O)O)NC(=O)[C@H](CCSC)NC(=O)[C@H](Cc1c[nH]c2ccccc12)NC(C)=O)C(=O)N[C@@H](CC(N)=O)C(=O)N[C@@H](CC(N)=O)C(=O)N[C@@H](Cc1ccc(O)cc1)C(=O)N[C@H](C(=O)N[C@@H](CO)C(=O)N[C@@H](CC(C)C)C(=O)N[C@H](C(=O)N[C@@H](Cc1cnc[nH]1)C(=O)N[C@@H](CO)C(=O)N[C@@H](CC(C)C)C(=O)N[C@@H](CCC(=O)O)C(=O)N[C@@H](CCC(=O)O)C(=O)N[C@@H](CCC(=O)O)C(=O)N[C@@H](CO)C(=O)N[C@@H](CCC(N)=O)C(=O)N[C@@H](CC(N)=O)C(=O)N[C@@H](CCC(N)=O)C(=O)N[C@@H](CCC(N)=O)C(=O)N[C@@H](CCC(=O)O)C(=O)N[C@@H](CCCCN)C(=O)N[C@@H](CC(N)=O)C(=O)N[C@@H](CCC(=O)O)C(=O)N[C@@H](CCC(N)=O)C(=O)N[C@@H](CCC(=O)O)C(=O)N[C@@H](CC(C)C)C(=O)N[C@@H](CC(C)C)C(N)=O)[C@@H](C)CC)[C@@H](C)O
520 nM | 550 nM | 94 nM | 920 nM | CC[C@H](C)[C@H](NC(=O)[C@H](CCC(=O)O)NC(=O)[C@H](CCCNC(=N)N)NC(=O)[C@H](CC(=O)O)NC(=O)[C@H](Cc1c[nH]c2ccccc12)NC(=O)[C@H](CCC(=O)O)NC(=O)[C@H](CCSC)NC(=O)[C@H](Cc1c[nH]c2ccccc12)NC(C)=O)C(=O)N[C@@H](CC(N)=O)C(=O)N[C@@H](CC(N)=O)C(=O)N[C@@H](Cc1ccc(O)cc1)C(=O)N[C@H](C(=O)N[C@@H](CO)C(=O)N[C@@H](CC(C)C)C(=O)N[C@H](C(=O)N[C@@H](Cc1cnc[nH]1)C(=O)N[C@@H](CO)C(=O)N[C@@H](CC(C)C)C(=O)N[C@@H](CCCCN)C(=O)N[C@@H](CCC(=O)O)C(=O)N[C@@H](CCC(=O)O)C(=O)N[C@@H](CO)C(=O)N[C@@H](CCC(N)=O)C(=O)N[C@@H](CC(N)=O)C(=O)N[C@@H](CCC(N)=O)C(=O)N[C@@H](CCC(N)=O)C(=O)N[C@@H](CCC(=O)O)C(=O)N[C@@H](CCCCN)C(=O)N[C@@H](CC(N)=O)C(=O)N[C@@H](CCC(=O)O)C(=O)N[C@@H](CCC(N)=O)C(=O)N[C@@H](CCC(=O)O)C(=O)N[C@@H](CC(C)C)C(=O)N[C@@H](CC(C)C)C(N)=O)[C@@H](C)CC)[C@@H](C)O
